Test [1] addresses T1, KDM2B (Homo sapiens, UniProt Q8NHM5).
T1 sequence (Q8NHM5 1-1336): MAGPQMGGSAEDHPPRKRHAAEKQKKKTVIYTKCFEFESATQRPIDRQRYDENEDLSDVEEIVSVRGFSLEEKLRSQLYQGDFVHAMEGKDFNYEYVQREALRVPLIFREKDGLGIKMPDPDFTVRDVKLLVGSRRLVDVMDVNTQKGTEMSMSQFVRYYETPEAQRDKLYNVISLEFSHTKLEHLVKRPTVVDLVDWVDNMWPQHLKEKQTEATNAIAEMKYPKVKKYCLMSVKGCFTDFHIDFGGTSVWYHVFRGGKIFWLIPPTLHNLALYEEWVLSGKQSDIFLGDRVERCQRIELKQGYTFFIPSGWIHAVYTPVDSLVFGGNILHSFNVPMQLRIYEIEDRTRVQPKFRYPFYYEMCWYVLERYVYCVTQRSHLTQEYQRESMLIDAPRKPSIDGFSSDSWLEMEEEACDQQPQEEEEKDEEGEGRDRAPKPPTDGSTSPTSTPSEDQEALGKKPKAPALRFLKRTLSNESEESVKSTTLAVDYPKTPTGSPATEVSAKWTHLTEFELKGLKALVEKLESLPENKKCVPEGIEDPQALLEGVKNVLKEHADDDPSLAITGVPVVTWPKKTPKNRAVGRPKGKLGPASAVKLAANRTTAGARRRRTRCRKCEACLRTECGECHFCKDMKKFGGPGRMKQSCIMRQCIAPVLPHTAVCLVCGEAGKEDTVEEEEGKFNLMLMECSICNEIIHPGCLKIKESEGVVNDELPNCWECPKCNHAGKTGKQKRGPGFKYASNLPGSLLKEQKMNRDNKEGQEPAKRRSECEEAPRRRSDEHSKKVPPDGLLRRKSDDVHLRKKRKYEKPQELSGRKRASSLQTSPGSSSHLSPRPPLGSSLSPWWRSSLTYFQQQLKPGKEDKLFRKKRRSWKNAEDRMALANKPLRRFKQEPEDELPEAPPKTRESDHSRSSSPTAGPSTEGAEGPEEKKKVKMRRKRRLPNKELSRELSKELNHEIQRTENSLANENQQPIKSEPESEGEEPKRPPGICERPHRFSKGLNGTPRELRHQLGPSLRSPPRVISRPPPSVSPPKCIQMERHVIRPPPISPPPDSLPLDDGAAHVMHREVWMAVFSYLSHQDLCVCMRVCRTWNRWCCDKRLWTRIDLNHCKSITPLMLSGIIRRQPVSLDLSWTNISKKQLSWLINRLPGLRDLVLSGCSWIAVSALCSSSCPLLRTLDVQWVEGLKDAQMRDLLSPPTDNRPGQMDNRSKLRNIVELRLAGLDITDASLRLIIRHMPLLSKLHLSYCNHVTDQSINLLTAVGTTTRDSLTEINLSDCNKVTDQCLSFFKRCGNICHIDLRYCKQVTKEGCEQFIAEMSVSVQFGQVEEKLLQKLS
The experiment in a line: KDM2B enzymatic assay (AlphaLISA). Format: biochemical. The method, then:
(§1) The following assay protocol was used for all histone demethylases tested except KDM1A, KDM5A, B, and D, which are described below. Compounds were serially diluted into a 384-well Alpha plate as a DMSO solution and mixed with 5 μL reaction buffer (buffer A) containing 50 mM HEPES (pH 7.0), 0.1% BSA, and 0.003% Tween-20. The enzyme of interest was pre-incubated with 15 μM of Fe^2+ for 10 min (except 30 min for KDM2B) in reaction buffer A. 5 μL of the enzyme mixture was added to each of the compound-containing wells and incubated for 10 min. The reaction was started by addition of a 5 μL mixture containing 300 nM peptide substrate, 75 μM L-ascorbic acid, and 30 μM α-ketoglutarate in buffer A. This final 15 μL of reaction mixture was incubated for 20 min for KDM5B and 1 hour for the other KDM enzymes. The reaction was quenched with 10 μL of diluted AlphaLISA Acceptor beads (1:400) in Epigenetics Buffer and incubated for 60 min. The Donor beads were diluted 1:400 into Epigenetics Buffer in the dark and 10 μL of this was added to each well and incubated for another 60 min in the dark. The assay plates were read on an Enspire plate reader (PerkinElmer) using a standard AlphaLISA program.
(§2) Data was analyzed using GraphPad Prism 6.0 (La Jolla, CA). […] IC50 values were calculated as an average of at least two independent experiments.
In general terms: In Alpha technology, singlet oxygen from a donor bead excites a nearby acceptor bead.

Test [2] concerns the target T2, SETDB1 (Homo sapiens, UniProt Q15047).
T2 construct: 510-1290
As to the kind of experiment: Histone methyltransferase enzymatic assay, SETDB1. Format: biochemical. The conditions noted are these: enzyme conc. 100 nM. As for the experimental part:
(§3) Histone methyltransferase assays were performed in 96-well half-area optiplates (PerkinElmer) at room temperature. All concentrations are final unless noted otherwise. Compounds were serially diluted in DMSO and the final DMSO concentration was 1%. A 24 μL reaction mixture contained compound, enzyme, 200 nM of nucleosome or histone substrate, 400 nM ^3H-SAM (83.1 Ci/mmol), 50 mM Tris-HCl (pH 8.0), 50 mM NaCl, 5 mM MgCl2, 1 mM DTT, and 0.01% Tween-20. The plate was sealed, mixed on a Titramax plate shaker at 1200 rpm for 30 sec, and incubated at room temperature for 60 min. The reaction was quenched by addition of 24 μL mixture containing 5 mg/mL PVT-PEI beads and 300 μM unlabeled SAM in water. The plate was sealed, mixed as previously noted, incubated overnight, and read on a TopCount plate reader (PerkinElmer).
as §2

Test [3] deals with KDM7B (Homo sapiens, UniProt Q9UPP1). The experiment in a line: KDM7B enzymatic assay (AlphaLISA). Format: biochemical. As for the experimental part:
as §1, §2

Test [4] concerns the target KDM4C (Homo sapiens, UniProt Q9H3R0). As to the kind of experiment: biochemical. As for the experimental part: as §1, §2
For test [5], the target named is KDM6B (Homo sapiens, UniProt O15054). As to the kind of experiment: KDM6B enzymatic assay (AlphaLISA). It counts as biochemical. As for the experimental part:
as §1, §2

For test [6], the target named is T3, GLP (Homo sapiens, UniProt Q9H9B1).
T3 construct: 894-1298; purchased RBC (read as Reaction Biology Corporation, named)
T3 sequence (Q9H9B1 894-1298): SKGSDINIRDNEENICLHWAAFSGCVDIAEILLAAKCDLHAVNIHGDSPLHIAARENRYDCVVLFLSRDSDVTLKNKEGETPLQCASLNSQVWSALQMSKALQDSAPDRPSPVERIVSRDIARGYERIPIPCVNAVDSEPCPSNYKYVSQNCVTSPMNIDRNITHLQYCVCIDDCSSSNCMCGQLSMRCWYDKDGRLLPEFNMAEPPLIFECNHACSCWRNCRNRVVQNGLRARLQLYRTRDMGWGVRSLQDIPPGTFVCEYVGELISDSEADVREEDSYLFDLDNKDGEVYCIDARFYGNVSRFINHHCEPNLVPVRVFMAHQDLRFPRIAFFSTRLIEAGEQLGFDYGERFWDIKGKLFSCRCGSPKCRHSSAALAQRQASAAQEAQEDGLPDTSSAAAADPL
The experiment in a line: Histone methyltransferase enzymatic assay, GLP. Format: biochemical. The following applies: enzyme conc. 100 nM; read-out: IC50. As for the experimental part: as §3, §2

Structures are written as SMILES. Some results are limits rather than exact numbers.

By IC50 is commonly meant the point on the concentration scale where inhibition reaches its midpoint.

KDM4C, sequence (Q9H3R0 whole entry): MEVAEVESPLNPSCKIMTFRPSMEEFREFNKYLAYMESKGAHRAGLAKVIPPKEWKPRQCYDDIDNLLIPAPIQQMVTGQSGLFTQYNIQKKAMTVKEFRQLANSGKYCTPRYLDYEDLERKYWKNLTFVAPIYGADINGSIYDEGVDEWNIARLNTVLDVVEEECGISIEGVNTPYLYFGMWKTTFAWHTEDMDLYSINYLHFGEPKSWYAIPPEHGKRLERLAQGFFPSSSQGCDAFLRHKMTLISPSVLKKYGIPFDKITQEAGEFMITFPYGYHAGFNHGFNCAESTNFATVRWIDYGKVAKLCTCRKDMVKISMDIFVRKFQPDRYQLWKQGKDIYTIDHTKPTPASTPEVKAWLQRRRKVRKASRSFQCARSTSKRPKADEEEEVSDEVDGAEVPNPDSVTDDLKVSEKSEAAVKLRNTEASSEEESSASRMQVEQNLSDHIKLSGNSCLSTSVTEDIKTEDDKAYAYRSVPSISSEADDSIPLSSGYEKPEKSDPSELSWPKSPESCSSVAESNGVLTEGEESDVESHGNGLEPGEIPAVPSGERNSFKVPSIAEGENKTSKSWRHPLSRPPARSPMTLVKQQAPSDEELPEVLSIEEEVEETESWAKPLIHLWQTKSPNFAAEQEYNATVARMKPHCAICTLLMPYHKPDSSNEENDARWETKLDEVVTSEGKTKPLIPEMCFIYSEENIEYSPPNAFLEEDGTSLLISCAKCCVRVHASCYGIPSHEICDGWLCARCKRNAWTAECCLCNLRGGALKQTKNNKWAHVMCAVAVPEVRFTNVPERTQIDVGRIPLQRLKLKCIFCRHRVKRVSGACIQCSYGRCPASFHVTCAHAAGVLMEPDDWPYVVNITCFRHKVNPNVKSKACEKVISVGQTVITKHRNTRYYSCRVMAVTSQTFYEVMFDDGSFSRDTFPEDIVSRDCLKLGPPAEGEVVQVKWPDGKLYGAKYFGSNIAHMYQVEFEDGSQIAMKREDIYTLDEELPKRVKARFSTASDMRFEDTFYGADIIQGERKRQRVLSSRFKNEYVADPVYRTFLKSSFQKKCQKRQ
KDM7B, sequence (Q9UPP1 whole entry): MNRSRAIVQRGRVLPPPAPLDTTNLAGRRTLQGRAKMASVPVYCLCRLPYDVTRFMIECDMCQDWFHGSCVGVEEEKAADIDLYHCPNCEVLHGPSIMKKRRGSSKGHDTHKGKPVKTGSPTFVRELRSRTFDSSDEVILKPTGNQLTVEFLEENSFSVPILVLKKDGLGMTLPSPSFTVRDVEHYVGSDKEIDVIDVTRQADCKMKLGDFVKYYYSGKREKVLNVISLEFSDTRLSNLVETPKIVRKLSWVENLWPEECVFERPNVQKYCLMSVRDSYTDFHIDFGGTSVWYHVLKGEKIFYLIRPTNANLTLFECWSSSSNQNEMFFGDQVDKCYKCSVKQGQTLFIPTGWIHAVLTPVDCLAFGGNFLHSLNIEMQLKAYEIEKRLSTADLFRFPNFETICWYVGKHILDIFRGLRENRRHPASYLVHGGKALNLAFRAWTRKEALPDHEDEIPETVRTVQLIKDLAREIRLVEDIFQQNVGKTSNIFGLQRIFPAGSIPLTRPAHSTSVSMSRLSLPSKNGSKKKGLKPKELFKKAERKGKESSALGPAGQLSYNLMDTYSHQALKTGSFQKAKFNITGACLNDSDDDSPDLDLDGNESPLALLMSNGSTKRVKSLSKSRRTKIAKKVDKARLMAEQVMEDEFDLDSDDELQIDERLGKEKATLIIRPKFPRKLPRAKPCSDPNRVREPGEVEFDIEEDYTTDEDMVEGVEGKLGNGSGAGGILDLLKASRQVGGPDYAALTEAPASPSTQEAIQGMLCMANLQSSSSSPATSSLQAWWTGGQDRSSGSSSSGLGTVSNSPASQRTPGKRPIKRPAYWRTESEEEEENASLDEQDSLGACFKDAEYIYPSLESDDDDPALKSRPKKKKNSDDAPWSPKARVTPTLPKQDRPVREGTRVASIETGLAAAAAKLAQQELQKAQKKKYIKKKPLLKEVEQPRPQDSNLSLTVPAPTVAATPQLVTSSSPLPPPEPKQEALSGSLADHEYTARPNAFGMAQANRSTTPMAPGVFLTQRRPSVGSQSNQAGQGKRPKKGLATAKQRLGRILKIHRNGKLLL
KDM6B, sequence (O15054 whole entry): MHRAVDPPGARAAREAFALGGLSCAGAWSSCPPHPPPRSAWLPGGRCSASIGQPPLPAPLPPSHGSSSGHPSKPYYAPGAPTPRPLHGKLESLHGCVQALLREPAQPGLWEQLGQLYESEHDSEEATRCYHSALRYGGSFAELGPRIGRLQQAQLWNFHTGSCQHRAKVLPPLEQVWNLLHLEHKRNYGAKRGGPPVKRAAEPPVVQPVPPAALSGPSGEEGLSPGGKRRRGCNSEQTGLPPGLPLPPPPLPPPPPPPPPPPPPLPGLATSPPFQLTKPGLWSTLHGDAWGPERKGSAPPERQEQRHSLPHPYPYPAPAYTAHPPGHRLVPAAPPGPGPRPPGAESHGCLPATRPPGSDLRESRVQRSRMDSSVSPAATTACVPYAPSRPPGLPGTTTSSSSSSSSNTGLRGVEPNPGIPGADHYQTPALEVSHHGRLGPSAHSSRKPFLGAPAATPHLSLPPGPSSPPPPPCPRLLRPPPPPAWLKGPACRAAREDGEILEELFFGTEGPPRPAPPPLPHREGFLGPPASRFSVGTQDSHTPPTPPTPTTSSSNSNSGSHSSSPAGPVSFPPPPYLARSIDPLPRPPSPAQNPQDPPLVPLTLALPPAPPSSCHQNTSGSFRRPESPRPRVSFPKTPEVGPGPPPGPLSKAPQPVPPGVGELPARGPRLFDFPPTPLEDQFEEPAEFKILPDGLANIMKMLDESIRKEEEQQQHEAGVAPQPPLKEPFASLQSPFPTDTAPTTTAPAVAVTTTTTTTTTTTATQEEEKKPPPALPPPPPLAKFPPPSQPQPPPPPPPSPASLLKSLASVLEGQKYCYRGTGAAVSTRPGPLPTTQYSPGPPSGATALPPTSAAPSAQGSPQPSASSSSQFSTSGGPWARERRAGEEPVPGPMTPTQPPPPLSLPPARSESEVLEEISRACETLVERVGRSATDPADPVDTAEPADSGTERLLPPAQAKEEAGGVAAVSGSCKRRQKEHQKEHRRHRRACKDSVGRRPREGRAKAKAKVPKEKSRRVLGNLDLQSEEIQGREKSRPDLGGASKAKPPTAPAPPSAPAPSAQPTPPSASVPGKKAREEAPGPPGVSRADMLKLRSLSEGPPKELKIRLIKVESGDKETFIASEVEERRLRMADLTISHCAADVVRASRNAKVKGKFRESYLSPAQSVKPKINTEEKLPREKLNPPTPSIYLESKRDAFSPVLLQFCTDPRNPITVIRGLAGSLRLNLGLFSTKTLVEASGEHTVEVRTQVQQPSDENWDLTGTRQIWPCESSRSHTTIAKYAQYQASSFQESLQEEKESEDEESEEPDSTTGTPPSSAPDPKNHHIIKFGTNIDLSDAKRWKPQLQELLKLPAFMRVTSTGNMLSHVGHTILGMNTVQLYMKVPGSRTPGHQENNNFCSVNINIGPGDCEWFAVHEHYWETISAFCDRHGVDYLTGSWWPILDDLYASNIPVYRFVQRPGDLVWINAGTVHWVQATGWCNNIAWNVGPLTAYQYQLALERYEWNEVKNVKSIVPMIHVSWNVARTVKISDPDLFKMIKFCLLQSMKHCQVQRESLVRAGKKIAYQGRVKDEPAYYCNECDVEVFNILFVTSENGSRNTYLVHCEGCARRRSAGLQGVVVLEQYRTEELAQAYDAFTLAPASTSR

On to `CCN(CCN(C)C)C(=O)CNCc1cc(C(=O)O)ccn1` [GS-080], for which the “Fold Selectivity Compared to KDM5A” value in test [1] (IC50 of KDM2B over KDM5A) is recorded as > 1,720 fold; in test [3] (IC50 of KDM7B over KDM5A) it was > 1,110 fold; in test [4] (IC50 of KDM4C over KDM5A) it was 13 fold; in test [5] (IC50 of KDM6B over KDM5A), > 17,200 fold. Further, the IC50 was 0.62 µM in test [1] (enzyme concentration 2 nM); above 100 µM in test [2]; 0.4 µM in test [3] (enzyme concentration 2.5 nM); 0.0048 µM in test [4]; 6.2 µM in test [5] (enzyme concentration 1 nM, read-out: IC50); above 100 µM in test [6].

(Values after article PMC9728921, “Characterization of a KDM5 small molecule inhibitor with antiviral activity against hepatitis B virus” (PLOS ONE, 2022).)
